Entries after “also recorded” stand apart in the source; their conditions may differ.
Columns and labels:
SARS-CoV-2 [1] = conditions: Vero E6 cells; cited from earlier work
SARS-CoV-2 [2] = conditions: Vero E6 cells, real-time polymerase chain reaction; cited from earlier work
[3] = test system: SARS-CoV-2 MEX-BC2/2020 strain; assay type: cell-based

COc1ccc2cc1Oc1ccc(cc1)C[C@H]1c3c(cc4c(c3Oc3cc5c(cc3OC)CCN(C)[C@@H]5C2)OCO4)CCN1C [Cepharanthine]
CPE (% efficacy) (SARS-CoV-2 [1]): 92%

CCOC(=O)c1c(CSc2ccccc2)n(C)c2cc(Br)c(O)c(CN(C)C)c12 [Compound 1, Arbidol]
maximum inhibition of virus entry (SARS-CoV-2 [2]): 70%
compound precipitation or recrystallization in micrographs (25 μM, 96 h incubation with infected cells): no observed compound precipitation or recrystallization
aqueous solubility (solubilized in DMSO or buffer (for salts)): good aqueous solubility
cytotoxicity in viability assays (Vero E6 cells): dose-dependent trend of cytotoxicity
safety ratio (Vero E6 cells; African green monkey): 2.3

N#C[C@@]1(c2ccc3c(N)ncnn23)O[C@H](CO)[C@@H](O)[C@H]1O [GS-441524]
maximum % inhibition observed [3]: 100%
prevention of virus-induced CPE [3]: prevented completely the virus-induced CPE; also recorded: completely prevented the virus-induced CPE

C=C[C@@]1(C)CC(=O)[C@]2(O)[C@@]3(C)[C@@H](O)CCC(C)(C)[C@@H]3[C@H](OC(=O)CCN(C)C)[C@H](OC(C)=O)[C@@]2(C)O1.Cl [NKH477]
CPE (% efficacy) (SARS-CoV-2 [1]): 45%

CC1=C[C@]23C(=O)[C@@H](C=C(CO)[C@@H](O)[C@]2(O)[C@H]1O)[C@H]1[C@@H](C[C@H]3C)C1(C)C [ingenol]
CPE (% efficacy) (SARS-CoV-2 [1]): 38.2%

CC(CN(C)C)CN1c2ccccc2CCc2ccccc21 (centres unmarked) [trimipramine]
CPE (% efficacy) (SARS-CoV-2 [1]): 48%
